This note sets out measurements from DBAASP.

Some test systems named below: Escherichia coli BL21; Candida albicans; Bacillus subtilis; Escherichia coli ML-35p.
Holding throughout (assay): ≥ marks a high value that may be exact or a test limit, other limits are often not marked, values filed in µg/mL are converted to µM
The test system of test [1] is Bacillus subtilis ISW 1214.
The test system of test [2] is Listeria monocytogenes EGD.
The subject of test [3] is Staphylococcus aureus 930918-3.
Test [4] has as its system Neisseria gonorrhoeae FA19.
Test [5] concerns Pseudomonas aeruginosa MR3007.
In test [6] the test system is Neisseria gonorrhoeae F62.
The subject of test [7] is Saccharomyces cerevisiae ATCC 44774.
Test [8] deals with Micrococcus luteus ATCC 10240.
Test [9] has as its system Enterococcus faecalis ATCC 29212.
The subject of test [10] is Escherichia coli ATCC 27325.
In test [11] the test system is Bacillus subtilis KCTC 3038.
The subject of test [12] is Cryptococcus neoformans ATCC 34881.
Test [13] deals with Staphylococcus aureus ATCC 15752.
In test [14] the test system is Candida albicans ATCC 10231.
The subject of test [15] is Pseudomonas aeruginosa ATCC 27853.
Test [16] concerns Salmonella typhimurium KCTC 2370.
Test [17] has as its system Streptococcus mutans ATCC 25175.
Test [18] concerns Salmonella enterica subsp. enterica serovar Enteritidis ATCC 13076.
Test [19] deals with Pseudomonas putida ATCC 17426.
Test [20] deals with Bacillus subtilis ATCC 62037.

Values after ≈ are worked out from the molar mass of the structure shown. Values joined by “and” are separate entries in the source; they are usually repeats but may differ in a detail not shown here. Equal entries are not always repeated. A value given as a limit tells only on which side of the number the result lay.

`CC(=O)NCC(=O)N[C@@H](Cc1c[nH]c2ccccc12)C(=O)N[C@@H](CC(C)C)C(=O)N[C@@H](CCC(N)=O)C(=O)N[C@@H](CC(C)C)C(=O)N[C@@H](C)C(=O)N[C@@H](CCC(N)=O)C(=O)N[C@@H](Cc1cnc[nH]1)C(=O)N[C@@H](CC(C)C)C(=O)N[C@@H](CC(C)C)C(=O)N[C@@H](CCC(N)=O)C(=O)N[C@@H](CC(C)C)C(=O)NCC(=O)N[C@@H](CCC(N)=O)C(=O)N[C@@H](Cc1cnc[nH]1)C(=O)N[C@@H](CC(C)C)C(=O)N[C@@H](CC(C)C)C(=O)N[C@@H](CCC(N)=O)C(=O)N[C@@H](CC(C)C)C(=O)N[C@@H](C)C(=O)N[C@@H](CCC(N)=O)C(=O)N[C@@H](CCC(N)=O)C(=O)N[C@@H](CC(C)C)C(=O)N[C@@H](CCCN=C(N)N)C(=O)N[C@@H](CCCN=C(N)N)C(=O)N[C@@H](CCCN=C(N)N)C(N)=O` [GWLQLAQHLLQLGQHLLQLAQQLRRR]: the minimum inhibitory concentration (MIC) is 2.5 µM (≈ 7.9 µg/mL) in [1] and at least 160 µM against Escherichia coli BL21.

For `CC(C)C[C@H](N)C(=O)N[C@H]1CSSC[C@@H](C(=O)N[C@H](C(N)=O)C(C)C)NC(=O)[C@H](C(C)C)NC(=O)[C@@H]2CSSC[C@H](NC(=O)[C@H](Cc3ccc(O)cc3)NC1=O)C(=O)N[C@@H](CCCN=C(N)N)C(=O)N[C@@H](CCCN=C(N)N)C(=O)N[C@@H](CCCN=C(N)N)C(=O)N[C@@H](Cc1ccccc1)C(=O)N2` [LCYCRRRFCVCV], the MIC in test [2] was 0.26 µM and 0.55 µM; in test [3], 0.33 µM and 0.4 µM; with Candida albicans it was 7.58 µM (≈ 11.5 µg/mL); in test [4], 1.34 µM (≈ 2.03 µg/mL); in test [5] it was 0.2 µM and 0.29 µM; in the test with Bacillus subtilis it was 0.22 µM and 0.21 µM. The MIC with Escherichia coli ML-35p is 0.28 µM and 0.26 µM; in test [6], 0.64 µM (≈ 0.97 µg/mL).

On to `CC(C)[C@H](NC(=O)CNC(=O)[C@H](CCC(N)=O)NC(=O)[C@@H](NC(=O)[C@@H](NC(=O)[C@@H]1CCCN1C(=O)[C@H](CCCN=C(N)N)NC(=O)[C@@H](NC(=O)[C@@H](NC(=O)[C@@H](N)CCCN=C(N)N)C(C)C)C(C)C)C(C)C)C(C)C)C(=O)N[C@@H](CCCCN)C(=O)N[C@@H](CCC(N)=O)C(=O)N[C@@H](CCCCN)C(=O)N[C@H](C(=O)N[C@@H](CCCN=C(N)N)C(=O)O)C(C)C` [RVVRPVVQGVKQKVR], for which the minimum inhibitory concentration (MIC) in [7] is 18.3 µM (≈ 32 µg/mL); in test [8], at least 36.6 µM; in test [9], over 36.6 µM; in test [10], at least 36.6 µM; in [11] it was at least 36.6 µM; in test [12], at least 36.6 µM. In addition, the MIC in test [13] was at least 36.6 µM; in [14], 36.6 µM (≈ 64 µg/mL); in test [15], 9.15 µM (≈ 16 µg/mL); in test [16], at least 36.6 µM.

`CC[C@H](C)[C@H](NC(=O)[C@@H]1CCCN1C(=O)[C@H](Cc1c[nH]c2ccccc12)NC(=O)[C@H](CCC(N)=O)NC(=O)[C@H](CCCN=C(N)N)NC(=O)[C@@H](NC(=O)[C@@H](NC(=O)[C@@H](N)CCCN=C(N)N)C(C)C)C(C)C)C(=O)NCC(=O)N[C@@H](CCCN=C(N)N)C(=O)N[C@H](C(=O)N[C@H](C(=O)N[C@@H](CCCN=C(N)N)C(=O)N[C@@H](CCCN=C(N)N)C(=O)N[C@H](C(=O)N[C@H](C(=O)N[C@@H](CCCN=C(N)N)C(=O)N[C@@H](CCCN=C(N)N)C(=O)N[C@H](C(=O)N[C@H](C(=O)N[C@@H](CCCN=C(N)N)C(=O)N[C@@H](CC(C)C)C(=O)O)C(C)C)C(C)C)C(C)C)C(C)C)C(C)C)C(C)C` [RVVRQWPIGRVVRRVVRRVVRL]: the MIC was 0.726 µM (≈ 2 µg/mL) in test [7]; 0.726 µM (≈ 2 µg/mL) in test [17]; 1.45 µM (≈ 4 µg/mL) in test [18]; 1.45 µM (≈ 4 µg/mL) in [19]; 0.726 µM (≈ 2 µg/mL) in test [10]; 0.726 µM (≈ 2 µg/mL) in test [13]. In addition, the MIC in test [20] and in test [14] was 0.726 µM (≈ 2 µg/mL) each time.

The MIC is the lowest concentration that inhibits growth of the organism. A high value points to weaker potency.
